Test results taken from patent US9822373B2, “Mutant cells for protein secretion and lignocellulose degradation” (The Regents of the University of California, priority 2011, dated 2017).

Legend:
Neurospora crassa [1] = test: Bioreactor cellulase production, total secreted protein in supernatant; format: cell-based; settings: pre-grown 24 hours on 1% sucrose, induction with 0.2%
Description: Cellulase production was carried out in a 3.7 L bioreactor (BioEngineering AG) at an operating volume of 1 L. The bioreactor was equipped with one 48 mm Rushton impeller and four equally spaced baffles to provide adequate mixing. Impeller speed was controlled at 200 rpm for 8 hours to allow spore germination followed by 500 rpm for the remainder of the experiment. The temperature was maintained at 25° C., and medium pH was controlled at 5.5 using 40% phosphoric acid and 1:5 diluted ammonium hydroxide. The dissolved oxygen was maintained at a level greater than 20% of the saturation value of the medium by varying the aeration rate between 0.5 and 3 VVM in response to the dissolved oxygen tension. Minimal growth medium with 1% w/v sucrose as the sole carbon source (unless otherwise noted) was inoculated with 10^9 conidia. After 24 hours initial growth, cellulase production was induced with either cellobiose or Avicel® added to a final concentration of 0.2% w/v. Supernatant samples were collected at timepoint 0, 12 hours before induction, at induction, as well as 4, 8, 12, 24 and 36 hours post induction. Samples were spun at 4000 rpm for 5 minutes to pellet biomass and the supernatant was filtered through a 0.2 μm PES filter before being stored at −20° C. until all samples were collected.
Total secreted proteins were measured using the Bio-Rad Protein Assay kit (Bio-Rad) and visualized by running 15 μl of unconcentrated supernatant on a Criterion 4-14% Tris-HCL polyacrylamide gel and stained with Thermo Scientific GelCode Blue Stain Reagent.

Neurospora crassa [2] = test: Secreted protein concentration in shake flask culture supernatant; format: cell-based; settings: Δcre-1; time not stated
Description: (§1) Strains were inoculated at an OD595 equal to 0.05 in 100 ml Vogel's salts with 1% (wt/vol) sucrose in a 250 ml Erlenmeyer flask and grown under constant light at 200 rpm for 24 hours. Cultures were then induced with 2% sucrose, 2% cellobiose, 1% sucrose/1% cellobiose, or 1% sucrose/1% Avicel®. Cultures continued to grow under constant light at 200 rpm for 5 days with supernatant collected at 1, 2, 3, 4 and 5 day. The collected supernatant was filtered through a 0.2 μm PES filter to remove biomass before being stored at −20° C. until all samples were collected. To visualize the secreted proteins, 15 μl of unconcentrated supernatant was run on a Criterion 10% Tris-HCL polyacrylamide gel and stained with Thermo Scientific GelCode Blue Stain Reagent.

NCU07760 (gh61-2) = test: mRNA sequencing (RNA-Seq), transcript abundance of gh61-2; format: cell-based, Neurospora crassa; settings: Δ3βG mutant; 4 hours after transfer to 0.2% cellobiose
Description: Conidia from strains were inoculated at an OD595 equal to 0.05 in 50 ml Vogel's salts (45) with 2% w/v sucrose in a 250 ml Erlenmeyer flask and grown under constant light at 200 rpm for 16 hours. Biomass was then spun at 4200 rpm for 10 minutes and washed in Vogel's salts twice to remove any excess sucrose. Biomass was then added to a new flask containing 50 ml Vogel's salts supplemented with 1% w/v sucrose, 0.2% w/v cellobiose (Sigma) or 1% w/v Avicel® PH 101 (Sigma). Cultures were induced for 4 hrs under constant light at 200 rpm. The culture biomass was then harvested by filtration over a Whatman glass microfiber filter (GF/F) on a Buchner funnel and washed with 50 ml Vogel's salts. The biomass was flash frozen in liquid nitrogen and stored at −80° C. Three independent biological duplicates (flasks) were evaluated for each time point.
Total RNA from frozen samples was isolated using Zirconia/Silica beads (0.5 mm diameter; Biospec) and a Mini-Beadbeater-96 (Biospec) with 1 mL TRIzol reagent (Invitrogen) according to the manufacturer's instructions. […]
mRNA sequencing was performed using an Illumina kit (RS-100-0801) with isolated RNA. The final cDNA library was quantified by an Agilent bioanalyzer 2000 and sequenced using an Illumina Genome Analyzer-II using standard Illumina operating procedures. […]

[3] = system: Exoglucanase (Cellobiohydrolase I); test: MuLac (4-Methylumbelliferyl β-D-cellobioside) exoglucanase activity of culture supernatant; format: cell-based, Neurospora crassa; settings: for MuLac activity: triple β-glucosidase deletion
Description: as §1
Exoglucanase (Cellobiohydrolase I) activity was measured using a 4-Methylumbelliferyl β-D-cellobioside (MuLac) assay. This assay mainly measures the activity of CBH-1 and activity is expressed as the change in fluorescence over time resulting in the slope of a best-fit line as an indication of enzyme activity. Prior to performing this assay, any excess sugars in the culture supernatant were removed by passing the supernatant over a 5,000 Dalton concentrator (sartorius stedim Vivaspin 500). Retained proteins were washed twice with 50 mM sodium acetate pH 5 and diluted to 2 μg/μl to assure that the assay remained in the linear range. […] The assay was performed in a Beckman Coulter Paradigm plate reader set at 40° C. with excitation/emission wavelengths of 360/465 nm with readings every 30 seconds for 10 minutes. The slope of the best-fit line represents the MuLac activity for an individual culture supernatant. The MuLac activity is normalized to the initial dilution required to obtain a 2 μg/μl concentration in order to represent the undiluted activity. The activity of recombinant cellobiohydrolase-1 was used as a standard and data is presented as a percentage of the wild type activity on Avicel® after 4 days.

## O=C[C@H](O)[C@@H](O)[C@H](O[C@@H]1O[C@H](CO)[C@@H](O)[C@H](O)[C@H]1O)[C@H](O)CO [cellobiose]
Neurospora crassa [1]; WT
  protein in the supernatant: 0.05 mg/mL
Neurospora crassa [1]; Δ3βG
  protein in the supernatant: 0.12 mg/mL
Neurospora crassa [1]; Δ3βGΔcre
  protein in the supernatant: 0.24 mg/mL
Neurospora crassa [2]
  cellulase secretion (secreted protein): 653 µg/mL
NCU07760 (gh61-2)
  FPKM of NCU07760 (gh61-2): 538 FPKM
[3]; 4 days
  MuLac activity: 4.84 μg CBHI equivalent
[3]; two days
  MuLac activity: 1.4 μg recombinant CBHI
[3]; triple β-glucosidase/Δcre-1 deletion strain, four days
  MuLac activity (CBHI equivalent produced): more than 11 μg CBHI equivalent
[3]; Δcre-1, time not stated
  activity towards MuLac: 0.8 µg
